Assay results as given in ChEMBL document CHEMBL3046044, “Evaluation of mefenamic acid mutual prodrugs” (Med Chem Res, 2013).
Values belong to the compound of their own block, whether it stands above or below them.

Tests used:
Mus musculus = experiment: Analgesic activity in po dosed Mus musculus Swiss albino (mouse) assessed as inhibition of acetic acid-induced writhing administered 1 hr prior to acetic acid challenge measured for 20 min relative to control; format: functional
[1] = Solubility of the compound in 0.1 N sodium hydroxide at 10 mg; format: physicochemical
Rattus norvegicus [2] = experiment: Anti-inflammatory activity in Rattus norvegicus Wistar albino (rat) assessed as inhibition of carrageenan-induced paw edema at 80 mg/kg, po measured at 3 hr relative to control; format: functional
[3] = Solubility of the compound in ethanol at 10 mg; format: physicochemical
Rattus norvegicus [4] = experiment: Increase in hexosamine level in Rattus norvegicus (rat) stomach at 800 mg/kg, po after 12 hr (reference value: 122.323 +/- 4.639 ug/ml); format: functional
Rattus norvegicus [5] = experiment: Inhibition of superoxide dismutase level in Rattus norvegicus (rat) stomach at 800 mg/kg, po after 12 hr (reference value: 37.096 +/- 7.335%); format: functional
[6] = Solubility of the compound in dichloromethane at 10 mg; format: physicochemical
Rattus norvegicus [7] = experiment: Effect on protein level in Rattus norvegicus (rat) stomach at 800 mg/kg, po after 12 hr by Bradford method (reference value: 42.5 +/- 5.773 ug/ml); format: functional
[8] = Solubility of the compound in 0.1 N hydrochloric acid at 10 mg; format: physicochemical
[9] = Solubility of the compound in chloroform at 10 mg; format: physicochemical
Rattus norvegicus [10] = experiment: Anti-inflammatory activity in Rattus norvegicus Wistar albino (rat) assessed as inhibition of carrageenan-induced paw edema at 80 mg/kg, po measured at 6 hr relative to control; format: functional
[11] = Solubility of the compound in benzene at 10 mg; format: physicochemical
Rattus norvegicus [12] = experiment: Ulcerogenicity in Rattus norvegicus (rat) stomach assessed as ulcer index at 800 mg/kg, po after 12 hr (reference value: 3.413 +/- 2.160 no unit); format: toxicity, organism-based; design: dose 800 mg/kg, route oral; conditions: in vivo
Rattus norvegicus [13] = experiment: Reduction of gastric wall mucus level in Rattus norvegicus (rat) stomach measured per mg of protein at 800 mg/kg, po after 12 hr by alcian blue staining (reference value: 285.680 +/- 3.348 ug); format: functional
Rattus norvegicus [14] = experiment: Anti-inflammatory activity in Rattus norvegicus Wistar albino (rat) assessed as inhibition of carrageenan-induced paw edema at 80 mg/kg, po measured at 24 hr relative to control; format: functional
Rattus norvegicus [15] = experiment: Antioxidant activity in Rattus norvegicus (rat) stomach assessed as effect on GSH level measured per 100 g of protein at 800 mg/kg, po after 12 hr by Ellman's method (reference value: 350.735 +/- 42.887 uM); format: functional
Rattus norvegicus [16] = experiment: Antioxidant activity in Rattus norvegicus (rat) stomach assessed as reduction of lipid peroxidation measured MDA level per mg of protein at 1240 mg/kg, po after 12 hr by TBARS assay (reference value: 4.388 +/- 0.404 nM); format: functional
Rattus norvegicus [17] = experiment: Antioxidant activity in Rattus norvegicus (rat) stomach assessed as effect on catalase level measured per mg of protein at 800 mg/kg, po after 12 hr by spectrophotometric analysis (reference value: 26.055 +/- 4.669 U); format: functional
Rattus norvegicus [18] = experiment: Anti-inflammatory activity in Rattus norvegicus Wistar albino (rat) assessed as inhibition of carrageenan-induced paw edema at 80 mg/kg, po measured at 4 hr relative to control; format: functional
[19] = Solubility of the compound in methanol at 10 mg; format: physicochemical
Rattus norvegicus [20] = experiment: Inhibition of superoxide dismutase level in Rattus norvegicus (rat) stomach at 1260 mg/kg, po after 12 hr (reference value: 37.096 +/- 7.335%); format: functional
Rattus norvegicus [21] = experiment: Anti-inflammatory activity in Rattus norvegicus Wistar albino (rat) assessed as inhibition of carrageenan-induced paw edema at 126 mg/kg, po measured at 3 hr relative to control; format: functional
[22] = Half life in hydrochloric acid buffer at 10 mg at pH 1.2; format: physicochemical
[23] = Half life in Homo sapiens (human) 80% plasma at 10 mg at pH 7.4; format: ADME, cell-free; conditions: 80% human plasma
Rattus norvegicus [24] = experiment: Ulcerogenicity in Rattus norvegicus (rat) stomach assessed as ulcer index at 1260 mg/kg, po after 12 hr (reference value: 3.413 +/- 2.160 no unit); format: toxicity, organism-based; design: dose 1260 mg/kg, route oral; conditions: in vivo
Rattus norvegicus [25] = experiment: Anti-inflammatory activity in Rattus norvegicus Wistar albino (rat) assessed as inhibition of carrageenan-induced paw edema at 126 mg/kg, po measured at 4 hr relative to control; format: functional
Rattus norvegicus [26] = experiment: Effect on protein level in Rattus norvegicus (rat) stomach at 1260 mg/kg, po after 12 hr by Bradford method (reference value: 42.5 +/- 5.773 ug/ml); format: functional
Rattus norvegicus [27] = experiment: Reduction of gastric wall mucus level in Rattus norvegicus (rat) stomach measured per mg of protein at 1260 mg/kg, po after 12 hr by alcian blue staining (reference value: 285.680 +/- 3.348 ug); format: functional
Rattus norvegicus [28] = experiment: Increase in hexosamine level in Rattus norvegicus (rat) stomach at 1260 mg/kg, po after 12 hr (reference value: 122.323 +/- 4.639 ug/ml); format: functional
Rattus norvegicus [29] = experiment: Anti-inflammatory activity in Rattus norvegicus Wistar albino (rat) assessed as inhibition of carrageenan-induced paw edema at 126 mg/kg, po measured at 6 hr relative to control; format: functional
Rattus norvegicus [30] = experiment: Antioxidant activity in Rattus norvegicus (rat) stomach assessed as effect on catalase level measured per mg of protein at 1260 mg/kg, po after 12 hr by spectrophotometric analysis (reference value: 26.055 +/- 4.669 U); format: functional
[31] = Half life in isotonic phosphate buffer at 10 mg at pH 7.4; format: physicochemical
[32] = n-Octanol-phosphate buffer partition coefficient, log P of the compound at pH 7.4 by HPLC method; format: physicochemical
Rattus norvegicus [33] = experiment: Anti-inflammatory activity in Rattus norvegicus Wistar albino (rat) assessed as inhibition of carrageenan-induced paw edema at 126 mg/kg, po measured at 24 hr relative to control; format: functional
Rattus norvegicus [34] = experiment: Antioxidant activity in Rattus norvegicus (rat) stomach assessed as reduction of lipid peroxidation measured MDA level per mg of protein at 800 mg/kg, po after 12 hr by TBARS assay (reference value: 4.388 +/- 0.404 nM); format: functional
Rattus norvegicus [35] = experiment: Antioxidant activity in Rattus norvegicus (rat) stomach assessed as effect on GSH level measured per 100 g of protein at 1260 mg/kg, po after 12 hr by Ellman's method (reference value: 350.735 +/- 42.887 uM); format: functional
Rattus norvegicus [36] = experiment: Antioxidant activity in Rattus norvegicus (rat) stomach assessed as effect on GSH level measured per 100 g of protein at 1240 mg/kg, po after 12 hr by Ellman's method (reference value: 350.735 +/- 42.887 uM); format: functional
Rattus norvegicus [37] = experiment: Anti-inflammatory activity in Rattus norvegicus Wistar albino (rat) assessed as inhibition of carrageenan-induced paw edema at 124 mg/kg, po measured at 6 hr relative to control; format: functional
Rattus norvegicus [38] = experiment: Anti-inflammatory activity in Rattus norvegicus Wistar albino (rat) assessed as inhibition of carrageenan-induced paw edema at 124 mg/kg, po measured at 4 hr relative to control; format: functional
Rattus norvegicus [39] = experiment: Antioxidant activity in Rattus norvegicus (rat) stomach assessed as effect on catalase level measured per mg of protein at 1240 mg/kg, po after 12 hr by spectrophotometric analysis (reference value: 26.055 +/- 4.669 U); format: functional
Rattus norvegicus [40] = experiment: Antioxidant activity in Rattus norvegicus (rat) stomach assessed as reduction of lipid peroxidation measured MDA level per mg of protein at 1260 mg/kg, po after 12 hr by TBARS assay (reference value: 4.388 +/- 0.404 nM); format: functional
Rattus norvegicus [41] = experiment: Increase in hexosamine level in Rattus norvegicus (rat) stomach at 1240 mg/kg, po after 12 hr (reference value: 122.323 +/- 4.639 ug/ml); format: functional
Rattus norvegicus [42] = experiment: Inhibition of superoxide dismutase level in Rattus norvegicus (rat) stomach at 1240 mg/kg, po after 12 hr (reference value: 37.096 +/- 7.335%); format: functional
Rattus norvegicus [43] = experiment: Ulcerogenicity in Rattus norvegicus (rat) stomach assessed as ulcer index at 1240 mg/kg, po after 12 hr (reference value: 3.413 +/- 2.160 no unit); format: toxicity, organism-based; design: dose 1240 mg/kg, route oral; conditions: in vivo
Rattus norvegicus [44] = experiment: Effect on protein level in Rattus norvegicus (rat) stomach at 1240 mg/kg, po after 12 hr by Bradford method (reference value: 42.5 +/- 5.773 ug/ml); format: functional
Rattus norvegicus [45] = experiment: Anti-inflammatory activity in Rattus norvegicus Wistar albino (rat) assessed as inhibition of carrageenan-induced paw edema at 124 mg/kg, po measured at 24 hr relative to control; format: functional
Rattus norvegicus [46] = experiment: Reduction of gastric wall mucus level in Rattus norvegicus (rat) stomach measured per mg of protein at 1240 mg/kg, po after 12 hr by alcian blue staining (reference value: 285.680 +/- 3.348 ug); format: functional
Rattus norvegicus [47] = experiment: Anti-inflammatory activity in Rattus norvegicus Wistar albino (rat) assessed as inhibition of carrageenan-induced paw edema at 124 mg/kg, po measured at 3 hr relative to control; format: functional

solubility [1]: soluble
solubility [3]: soluble
solubility [6]: soluble
solubility [8]: Insoluble
solubility [9]: soluble
solubility [11]: soluble
solubility [19]: soluble
SMILES: Cc1cccc(Nc2ccccc2C(=O)O)c1C [MEFENAMIC ACID]
inhibition (INH) (Mus musculus): 63.321%
inhibition in vivo at 80 mg/kg (Rattus norvegicus [2]): 48.8%
Activity (Rattus norvegicus [4]): 139.224 µg/mL
inhibition in vivo at 800 mg/kg (Rattus norvegicus [5]): 24.2%
Activity (Rattus norvegicus [7]): 12.083 µg/mL
inhibition in vivo at 80 mg/kg (Rattus norvegicus [10]): 64.1%
UI (Rattus norvegicus [12]): 10.867
Activity (Rattus norvegicus [13]): 170.026 µg
inhibition in vivo at 80 mg/kg (Rattus norvegicus [14]): 69.1%
Activity (Rattus norvegicus [15]): 413.603 µM
Activity (Rattus norvegicus [16]): 26.25 nM
Activity (Rattus norvegicus [17]): 4.587 U
inhibition in vivo at 80 mg/kg (Rattus norvegicus [18]): 50.6%

solubility [1]: soluble
half-life [22]: 20.8 h
half-life [23]: 1.43 h
solubility [3]: soluble
solubility [6]: soluble
solubility [8]: Insoluble
half-life [31]: 8.87 h
solubility [9]: soluble
logD [32]: 4.98
solubility [11]: soluble
solubility [19]: soluble
SMILES: Cc1cccc(Nc2ccccc2C(=O)OC2CC(C)CCC2C(C)C)c1C (stereo not drawn) [Mefenamic acid-menthol]
inhibition (INH) (Mus musculus): 55.184%
inhibition in vivo at 1260 mg/kg (Rattus norvegicus [20]): 29.2%
inhibition in vivo at 126 mg/kg (Rattus norvegicus [21]): 41.7%
UI (Rattus norvegicus [24]): 5.117
inhibition in vivo at 126 mg/kg (Rattus norvegicus [25]): 44.1%
Activity (Rattus norvegicus [26]): 32.083 µg/mL
Activity (Rattus norvegicus [27]): 227.7692 µg
Activity (Rattus norvegicus [28]): 144.445 µg/mL
inhibition in vivo at 126 mg/kg (Rattus norvegicus [29]): 51.6%
Activity (Rattus norvegicus [30]): 23.807 U
inhibition in vivo at 126 mg/kg (Rattus norvegicus [33]): 67.1%
Activity (Rattus norvegicus [34]): 16.056 nM
Activity (Rattus norvegicus [35]): 261.03 µM

solubility [1]: soluble
half-life [22]: 23.1 h
half-life [23]: 1.14 h
solubility [3]: soluble
solubility [6]: soluble
solubility [8]: Insoluble
half-life [31]: 7.11 h
solubility [9]: soluble
logD [32]: 5.45
solubility [11]: soluble
solubility [19]: soluble
SMILES: Cc1ccc(C(C)C)c(OC(=O)c2ccccc2Nc2cccc(C)c2C)c1
inhibition (INH) (Mus musculus): 52.722%
Activity (Rattus norvegicus [36]): 286.765 µM
inhibition in vivo at 124 mg/kg (Rattus norvegicus [37]): 51%
inhibition in vivo at 124 mg/kg (Rattus norvegicus [38]): 41.7%
Activity (Rattus norvegicus [39]): 23.089 U
Activity (Rattus norvegicus [40]): 13.972 nM
Activity (Rattus norvegicus [41]): 151.249 µg/mL
inhibition in vivo at 1240 mg/kg (Rattus norvegicus [42]): 33.3%
UI (Rattus norvegicus [43]): 6.833
Activity (Rattus norvegicus [44]): 42.917 µg/mL
inhibition in vivo at 124 mg/kg (Rattus norvegicus [45]): 62.4%
Activity (Rattus norvegicus [46]): 190.256 µg
inhibition in vivo at 124 mg/kg (Rattus norvegicus [47]): 37.8%
